Reference: patent US10568856B2, “Composition for improved sleep” (Jamieson Laboratories, Ltd., priority 2015, dated 2020)

Assay: Melatonin time release profile (dissolution testing) of bilayer caplet
Assay type: physicochemical
Conditions: for Melatonin Released (%): bilayer caplet
Excerpt: Initially, a small portion of melatonin was being added to the immediate release layer. […] The premix blends were modified by relocating all melatonin ingredients to the time release layer. During initial trials, modifications were also made to excipients for cost purposes. […] The final bilayer caplet is coated, making it easier to swallow, with peppermint oil for odour masking. With these optimum parameters assessed for each layer, the tablet satisfies all of the requisite physical and chemical parameters to deliver the ingredients as intended.

Q: With `COc1ccc2[nH]cc(CCNC(C)=O)c2c1` [Melatonin] as the compound, how does the “Melatonin Released (%)” value (hardness 28 kp, time 15 minutes) read?
A: 20%

Q: And the “Melatonin Released (%)” value (hardness 28 kp, time 60 minutes)?
A: 57%

Q: What about the “Melatonin Released (%)” value (hardness 28 kp, time 360 minutes) of the same compound?
A: 99%

Q: What about the “Melatonin Released (%)” value (hardness 30 kp, time 15 minutes) of the same compound?
A: 18%

Q: What about the “Melatonin Released (%)” value (hardness 30 kp, time 60 minutes) of the same compound?
A: 52%

Q: And the “Melatonin Released (%)” value (hardness 30 kp, time 360 minutes)?
A: 98%

Q: And the “melatonin release in dissolution testing” value (initial trial formulation with a small portion of melatonin in the immediate release layer)?
A: released too quickly
